Read-outs that look alike come from different tables or passages of the source.
Assays:
786-O-Hif-Luc cells = assay: Luciferase assay (HIF responsive element reporter); details: 24 h
Description: A pool of infected cells were then selected against 2 μg/mL of puromycin (P8833, Sigma) for 10 days followed by limited dilution to select single clones.
Each concentration was tested in triplicate. After about 24 hours, luciferase activity was determined using ONE-Glo Luciferase Assay Reagent (E6110, Promega) following the manufacturer's recommended procedure. EC50 were calculated using Dotmatics software.

[1] = biological target: T1, HIF-2α HIS TAG-PASB Domain (Homo sapiens, UniProt Q99814); assay: HIF-2α Scintillation Proximity Assay (SPA); format: binding; details: displacement of tritiated probe Compound 183
T1 construct: 100 nM HIF-2α HIS TAG-PASB Domain
Description: The total assay volume was about 100 μL in the following configuration: 2 μL compound in 100% DMSO, 88 μL buffer with protein and probe and 10 μL of SPA beads. […] The percent inhibition was determined and IC50 values were calculated using the Dotmatics system based on the following equation: % inhibition=[(high control−sample)/(high control−low control)]×100.

786-O cells = assay: VEGF ELISA assay; format: cell-based; details: Homo sapiens, 786-0
Description: Each concentration was plated in duplicate. About 20 hours later, medium was removed by suction and each well was supplied with 180 μL of growth medium. About 20 µl freshly-made 10× compound stocks were added to each well. […] The EC50 was calculated by GraphPad Prism using the dose-response-inhibition (four parameter) equation. The cell-seeded plate was then subjected to CellTiter-Glo luminescence cell viability assay (Promega) by adding 50 μL of Celltiter Glo reagent into each well and shaking the plate for 8 minutes at 550 rpm (Thermomixer R, Eppendorf) then the luminescence signal immediately read in a plate reader (3 second delay, 0.5 second/well integration time, Synergy 2 multi Detection Microplate reader).

[2] = read-out: Mean Luciferase EC50 (nM)
[3] = read-out: Mean Luciferase EC50 (nM), 786-O-Hif-Luc cells, about 24 hours

T1 sequence (Q99814 240-350 limits assumed): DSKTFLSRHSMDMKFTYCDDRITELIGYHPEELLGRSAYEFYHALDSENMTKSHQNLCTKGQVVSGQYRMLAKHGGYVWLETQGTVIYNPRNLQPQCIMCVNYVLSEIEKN

Compound | EC50 (786-O-Hif-Luc cells; [2]) [nM] | IC50 [1] [nM] | also measured
N#Cc1cc(F)cc(Oc2ccc(S(=O)(=O)C(F)F)c3c2CC[C@H]3O)c1 [Compound 155] | 50 to 249 | – | EC50 (786-O cells): 50 to 249 nM
O=S(=O)(CF)c1ccc(OC2CC(F)C2)c2c1[C@H](O)C(F)(F)[C@@H]2F (stereo partly shown) [Compound 742] | – | – | EC50 (786-O cells): < 50 nM; EC50 (786-O-Hif-Luc cells; [3]): < 50 nM
O=S(=O)(c1ccc(Oc2cc(F)cc(Cl)c2)c2c1[C@H](O)CC2)C(F)F [Compound 1] | – | – | EC50 (786-O cells): 250 to 1000 nM
N#Cc1ccc(Oc2cc(F)cc(F)c2)c2c1[C@H](O)C(F)(F)C2 [Compound 67] | – | – | EC50 (786-O cells): 50 to 249 nM
O[C@H]1c2c(C(F)(F)F)ccc(OC(F)F)c2CC1F (stereo partly shown) [Compound 671] | – | > 1000 | –
O=S(=O)(c1ccc(Oc2cc(F)cc(Cl)c2)c2c1C(O)CC2)C(F)F (stereo not shown) [Compound 17] | – | – | EC50 (786-O cells): 50 to 249 nM
CS(=O)(=O)c1ccc(Oc2cc(F)cc(C#N)c2)c2c1C(O)C(F)C2 (stereo not shown) [Compound 232] | < 50 | – | –
C[C@H]1C[C@@H](O)c2c(S(=O)(=O)C(F)F)ccc(Oc3cc(F)cc(Cl)c3)c21 [Compound 7a] | 250 to 1000 | – | –
N#CC1CCc2c(OCC(F)F)ccc(C(F)(F)F)c21 (stereo not shown) [Compound 691] | – | > 1000 | –
O=S(=O)(CF)c1ccc(O[C@H]2C[C@H](F)C2)c2c1[C@H](O)C(F)(F)[C@@H]2F [Compound 742] | – | < 50 | –
N#Cc1cc(F)cc(Oc2ccc3c(c2C(F)F)[C@@H](N)C(F)(F)S3(=O)=O)c1 [Compound 387] | – | 50 to 249 | –
CS(=O)(=O)c1ccc(OC2CCOCC2)c2c1[C@H](O)C(F)(F)[C@@H]2F [Compound 796] | – | < 50 | EC50 (786-O-Hif-Luc cells; [3]): 250 to 1000 nM
N#Cc1cc(F)cc(Oc2ccc(S(N)(=O)=O)c3c2[C@@H](F)C(F)(F)[C@H]3O)c1 [Compound 338] | < 50 | – | –
CS(=O)(=O)c1ccc(OC2CCOCC2)c2c1[C@H](O)C(F)(F)C2 [Compound 775] | – | 250 to 1000 | EC50 (786-O-Hif-Luc cells; [3]): 250 to 1000 nM
[2H]C([2H])([2H])S(=O)(=O)c1ccc(Oc2cc(F)cc(C#N)c2)c2c1[C@]([2H])(O)C(F)(F)C2 [Compound 229] | < 50 | – | –
CS(=O)(=O)c1ccc(Oc2cc(F)cc(C#N)c2)c2c1[C@H](O)[C@H](F)[C@@H]2F [Compound 289, 3-[(1S,2S,3R)-2,3-difluoro-1-hydroxy-7-methylsulfonyl-indan-4-yl]oxy-5-fluoro-benzonitrile] | < 50 | – | –
O[C@H]1c2c(C(F)(F)F)ccc(OCC(F)F)c2C[C@H]1F [Compound 696] | – | 50 to 249 | EC50 (786-O-Hif-Luc cells; [3]): 50 to 249 nM
CCCOc1ccc(C2CC2)c2c1CC(F)(F)C2O (stereo not shown) [Compound 685] | – | > 1000 | –
CS(=O)(=O)c1ccc(Oc2cc(F)cc(C#N)c2)c2c1[C@H](O)[C@H](F)C2 [Compound 231] | < 50 | – | –
CS(=O)(=O)c1ccc(Oc2cc(F)cc(C#N)c2)c2c1[C@H](O)[C@@H](F)C2 [Compound 271] | 250 to 1000 | – | –
N#Cc1cc(F)cc(Oc2ccc(S(N)(=O)=O)c3c2[C@H](F)C(F)(F)[C@H]3O)c1 [Compound 339] | 250 to 1000 | – | –
CS(=O)(=O)c1ccc(Oc2cc(F)cc(C#N)c2)c2c1[C@H](N)C(F)(F)C2 [Compound 165] | 50 to 249 | – | –
O=S(=O)(c1ccc(Oc2cc(F)cc(Cl)c2)c(Cl)c1CO)C(F)F [Compound 41] | 250 to 1000 | – | EC50 (786-O cells): 250 to 1000 nM
CS(=O)(=O)c1ccc(OC[C@H]2CC2(F)F)c2c1[C@H](O)C(F)(F)[C@@H]2F [Compound 769] | – | 50 to 249 | EC50 (786-O-Hif-Luc cells; [3]): 250 to 1000 nM
N#Cc1cc(F)cc(Oc2ccc(S(=O)(=O)C(F)F)c3c2CCC3F)c1 (stereo not shown) [Compound 202] | – | 250 to 1000 | EC50 (786-O-Hif-Luc cells; [3]): > 1000 nM
O=S(=O)(c1ccc(Oc2cc(F)cc(Cl)c2)c(C(F)F)c1)C(F)(F)F [Compound 124] | 250 to 1000 | – | EC50 (786-O cells): 250 to 1000 nM
N#Cc1cc(F)cc(Oc2ccc(S(=O)(=O)C(F)F)c3c2CCC3O)c1 (stereo not shown) [Compound 78] | – | – | EC50 (786-O cells): 250 to 1000 nM

The next lines start with results.

EC50 (786-O-Hif-Luc cells; [2]) [nM] | IC50 [1] [nM] | Compound | also measured
50 to 249 | – | CNS(=O)(=O)c1ccc(Oc2cc(F)cc(C#N)c2)c2c1[C@H](O)C(F)(F)C2 [Compound 254] | –
– | < 50 | CS(=O)(=O)c1ccc(Oc2cc(F)cc(F)c2)c2c1C(O)C(F)(F)C2 (stereo not shown) [Compound 159] | EC50 (786-O cells): < 50 nM; EC50 (786-O-Hif-Luc cells; [3]): < 50 nM
– | 250 to 1000 | CC(=NO)c1c(S(=O)(=O)C(F)(F)F)ccc(Oc2cc(F)cc(Cl)c2)c1Br [Compound 106] | –
– | < 50 | O=S(=O)(c1ccc(OCC(F)F)c2c1[C@H](O)C(F)(F)C2)C(F)F [Compound 677] | EC50 (786-O-Hif-Luc cells; [3]): 50 to 249 nM
– | < 50 | N#C[C@H]1C[C@H](Oc2ccc(S(=O)(=O)C(F)(F)F)c3c2CC(F)(F)C3O)C1 (stereo partly shown) [Compound 786] | EC50 (786-O-Hif-Luc cells; [3]): < 50 nM
< 50 | – | N#Cc1cncc(Oc2ccc(S(=O)(=O)C(F)(F)F)c3c2CC(F)(F)[C@H]3O)c1 [Compound 235] | –
50 to 249 | – | N#Cc1cc(F)cc(Oc2ccc(S(=O)(=O)C(F)(F)F)c3c2CC[C@H]3O)c1 [Compound 57] | –
< 50 | – | N#Cc1cc(Cl)cc(Oc2ccc(S(=O)(=O)CF)c3c2CC(F)(F)[C@H]3O)c1 [Compound 167] | –
< 50 | – | CS(=O)(=O)c1ccc(Oc2cc(Cl)cc(C#N)c2)c2c1[C@H](O)C(F)(F)C2 [Compound 234] | EC50 (786-O cells): 50 to 249 nM
50 to 249 | – | CNS(=O)(=O)c1ccc(Oc2cc(F)cc(F)c2)c2c1[C@H](O)C(F)(F)C2 [Compound 251] | –
< 50 | – | [2H][C@]1(O)c2c(S(C)(=O)=O)ccc(Oc3cc(F)cc(C#N)c3)c2CC1(F)F [Compound 247] | –
250 to 1000 | – | N#Cc1cccc(Oc2ccc(S(=O)(=O)C(F)F)c3c2CC[C@H]3O)c1 [Compound 156] | –
50 to 249 | – | CCS(=O)(=O)c1ccc(Oc2cc(F)cc(C#N)c2)c2c1[C@H](O)C(F)(F)C2 [Compound 206] | –
> 1000 | – | CS(=O)(=O)c1ccc(Oc2cc(F)cc(C#N)c2)c2c1[C@@H](O)C(F)(F)C2 [Compound 226] | –
< 50 | – | NS(=O)(=O)c1ccc(Oc2cc(F)cc(F)c2)c2c1[C@H](O)C(F)(F)C2 [Compound 256] | –
– | < 50 | O=S(=O)(c1ccc(OC[C@@H]2CC2(F)F)c2c1[C@H](O)C(F)(F)C2)C(F)(F)F [Compound 728] | EC50 (786-O-Hif-Luc cells; [3]): < 50 nM
50 to 249 | – | N#Cc1cc(F)cc(Oc2ccc(S(=O)(=O)C(F)(F)F)c3c2CC(F)(F)[C@H]3N)c1 [Compound 290] | –
– | > 1000 | O=S(=O)(c1ccc(OC2CCNCC2)c2c1C(O)C(F)(F)C2)C(F)(F)F (stereo not shown) [Compound 606] | –
– | 50 to 249 | N#Cc1c(Oc2cc(F)cc(Cl)c2)ccc(S(=O)(=O)C(F)(F)F)c1F [Compound 153] | –
– | > 1000 | CC(C)(C)OC(=O)N[C@H]1C[C@@H](Oc2ccc(S(=O)(=O)C(F)(F)F)c3c2CC(F)(F)[C@H]3O)C1 [Compound 722] | EC50 (786-O-Hif-Luc cells; [3]): > 1000 nM
– | 50 to 249 | CS(=N)(=O)c1ccc(Oc2cc(F)cc(F)c2)c2c1[C@H](O)C(F)(F)C2 (stereo partly shown) [Compound 192] | EC50 (786-O-Hif-Luc cells; [3]): 250 to 1000 nM
– | > 1000 | O=S(=O)(c1ccc(-c2cccc(O)c2)c2c1[C@H](O)C(F)(F)C2)C(F)(F)F [Compound 564] | –
50 to 249 | – | N#Cc1cc(F)cc(Oc2ccc(S(N)(=O)=O)c3c2CC(F)(F)[C@H]3O)c1 [Compound 252] | –
– | > 1000 | O=S(=O)(c1ccc(OC2CCCNC2)c2c1C(O)C(F)(F)C2)C(F)(F)F (stereo not shown) [Compound 797] | –
– | 250 to 1000 | O=S(=O)(c1ccc(OC2CC(O)C2)c2c1[C@H](O)C(F)(F)C2)C(F)(F)F (stereo partly shown) [Compound 644] | EC50 (786-O-Hif-Luc cells; [3]): 250 to 1000 nM
– | > 1000 | O=S(=O)(c1ccc(O[C@@H]2CCCc3cn[nH]c32)c2c1[C@H](O)C(F)(F)C2)C(F)(F)F [Compound 729] | –
– | 50 to 249 | CCCOc1ccc(S(=O)(=O)C(F)F)c2c1CC(F)(F)[C@H]2O [Compound 676] | EC50 (786-O-Hif-Luc cells; [3]): 50 to 249 nM
– | 50 to 249 | O=S(=O)(c1ccc(Oc2cc(F)cc(Cl)c2)c(Br)c1C=NO)C(F)(F)F [Compound 107] | EC50 (786-O-Hif-Luc cells; [3]): 250 to 1000 nM
50 to 249 | – | CS(=O)(=O)c1ccc(Oc2cc(F)cc(C#N)c2)c2c1C(O)C(F)(F)C2 (stereo not shown) [Compound 223] | –

Reference: patent publication US10335388B2, “Combination therapy of a HIF-2-alpha inhibitor and an immunotherapeutic agent and uses thereof” (PELOTON THERAPEUTICS, INC., priority 2015, dated 2019)
